Experimental data from ChEMBL document CHEMBL5154935, “Design, Synthesis, and Biological Evaluation of Novel Evodiamine Derivatives as Potential Antihepatocellular Carcinoma Agents” (J Med Chem, 2022).

What was measured:
[1] = test system: SMMC-7721; assay: Antiproliferative activity against human SMMC-7721 cells treated for 72 hrs by MTT assay; type: functional, cell-based; details: SMMC-7721, 72 h
[2] = test system: HepG2; assay: Antiproliferative activity against human HepG2 cells treated for 72 hrs by MTT assay; type: functional, cell-based; details: HepG2, 72 h
[3] = Antiproliferative activity against human L02 cells treated for 72 hrs by MTT assay; type: toxicity, cell-based
[4] = test system: Huh-7; assay: Antiproliferative activity against human Huh-7 cells treated for 72 hrs by MTT assay; type: functional, cell-based; details: Huh-7, 72 h
[5] = test system: HCCLM9; assay: Antiproliferative activity against human HCCLM9 cells treated for 72 hrs by MTT assay; type: functional, cell-based; details: HCCLM9, 72 h
[6] = test system: SK-HEP1; assay: Antiproliferative activity against human SK-HEP1 cells treated for 72 hrs by MTT assay; type: functional, cell-based; details: SK-HEP1, 72 h
[7] = target: DNA topoisomerase 2-alpha (Homo sapiens) (UniProt P11388); assay: Inhibition of human Top2-alpha expressed in baculovirus assessed as inhibition of relaxation of supercoiled pBR322 plasmid DNA at 100 uM incubated for 30 mins in presence of ATP by ethidium bromide staining based agarose gel electrophoresis analysis relative to control
[8] = target: T1, DNA topoisomerase 1 (Homo sapiens) (UniProt P11387); assay: Inhibition of Top1 (unknown origin) assessed as inhibition of relaxation of supercoiled pBR322 plasmid DNA at 12.5 uM incubated for 25 mins by ethidium bromide staining based agarose gel electrophoresis analysis relative to control
T1 sequence (whole entry): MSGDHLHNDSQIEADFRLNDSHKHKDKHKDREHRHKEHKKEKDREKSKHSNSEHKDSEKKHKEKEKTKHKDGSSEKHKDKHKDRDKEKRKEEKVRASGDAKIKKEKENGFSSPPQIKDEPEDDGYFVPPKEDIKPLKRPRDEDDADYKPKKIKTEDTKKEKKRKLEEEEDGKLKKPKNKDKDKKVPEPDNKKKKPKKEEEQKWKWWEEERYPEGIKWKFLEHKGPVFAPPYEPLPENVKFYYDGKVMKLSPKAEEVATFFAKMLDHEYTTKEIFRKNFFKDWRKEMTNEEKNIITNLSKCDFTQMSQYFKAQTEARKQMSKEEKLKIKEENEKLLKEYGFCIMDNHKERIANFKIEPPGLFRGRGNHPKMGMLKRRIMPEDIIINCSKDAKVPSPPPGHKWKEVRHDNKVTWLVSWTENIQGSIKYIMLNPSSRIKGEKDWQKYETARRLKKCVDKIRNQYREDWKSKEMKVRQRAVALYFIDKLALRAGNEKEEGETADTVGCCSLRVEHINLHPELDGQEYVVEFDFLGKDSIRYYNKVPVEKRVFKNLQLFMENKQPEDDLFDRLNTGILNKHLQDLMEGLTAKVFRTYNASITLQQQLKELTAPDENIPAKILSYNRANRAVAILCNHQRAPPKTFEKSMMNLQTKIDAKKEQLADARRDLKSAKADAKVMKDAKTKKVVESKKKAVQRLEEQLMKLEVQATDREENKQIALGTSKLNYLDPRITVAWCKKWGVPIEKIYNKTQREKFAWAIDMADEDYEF

[9] = target: T1, DNA topoisomerase 1 (Homo sapiens); assay: Inhibition of Top1 (unknown origin) assessed as inhibition of relaxation of supercoiled pBR322 plasmid DNA at 50 uM incubated for 25 mins by ethidium bromide staining based agarose gel electrophoresis analysis relative to control

DNA topoisomerase 2-alpha (Homo sapiens), sequence (P11388 whole entry): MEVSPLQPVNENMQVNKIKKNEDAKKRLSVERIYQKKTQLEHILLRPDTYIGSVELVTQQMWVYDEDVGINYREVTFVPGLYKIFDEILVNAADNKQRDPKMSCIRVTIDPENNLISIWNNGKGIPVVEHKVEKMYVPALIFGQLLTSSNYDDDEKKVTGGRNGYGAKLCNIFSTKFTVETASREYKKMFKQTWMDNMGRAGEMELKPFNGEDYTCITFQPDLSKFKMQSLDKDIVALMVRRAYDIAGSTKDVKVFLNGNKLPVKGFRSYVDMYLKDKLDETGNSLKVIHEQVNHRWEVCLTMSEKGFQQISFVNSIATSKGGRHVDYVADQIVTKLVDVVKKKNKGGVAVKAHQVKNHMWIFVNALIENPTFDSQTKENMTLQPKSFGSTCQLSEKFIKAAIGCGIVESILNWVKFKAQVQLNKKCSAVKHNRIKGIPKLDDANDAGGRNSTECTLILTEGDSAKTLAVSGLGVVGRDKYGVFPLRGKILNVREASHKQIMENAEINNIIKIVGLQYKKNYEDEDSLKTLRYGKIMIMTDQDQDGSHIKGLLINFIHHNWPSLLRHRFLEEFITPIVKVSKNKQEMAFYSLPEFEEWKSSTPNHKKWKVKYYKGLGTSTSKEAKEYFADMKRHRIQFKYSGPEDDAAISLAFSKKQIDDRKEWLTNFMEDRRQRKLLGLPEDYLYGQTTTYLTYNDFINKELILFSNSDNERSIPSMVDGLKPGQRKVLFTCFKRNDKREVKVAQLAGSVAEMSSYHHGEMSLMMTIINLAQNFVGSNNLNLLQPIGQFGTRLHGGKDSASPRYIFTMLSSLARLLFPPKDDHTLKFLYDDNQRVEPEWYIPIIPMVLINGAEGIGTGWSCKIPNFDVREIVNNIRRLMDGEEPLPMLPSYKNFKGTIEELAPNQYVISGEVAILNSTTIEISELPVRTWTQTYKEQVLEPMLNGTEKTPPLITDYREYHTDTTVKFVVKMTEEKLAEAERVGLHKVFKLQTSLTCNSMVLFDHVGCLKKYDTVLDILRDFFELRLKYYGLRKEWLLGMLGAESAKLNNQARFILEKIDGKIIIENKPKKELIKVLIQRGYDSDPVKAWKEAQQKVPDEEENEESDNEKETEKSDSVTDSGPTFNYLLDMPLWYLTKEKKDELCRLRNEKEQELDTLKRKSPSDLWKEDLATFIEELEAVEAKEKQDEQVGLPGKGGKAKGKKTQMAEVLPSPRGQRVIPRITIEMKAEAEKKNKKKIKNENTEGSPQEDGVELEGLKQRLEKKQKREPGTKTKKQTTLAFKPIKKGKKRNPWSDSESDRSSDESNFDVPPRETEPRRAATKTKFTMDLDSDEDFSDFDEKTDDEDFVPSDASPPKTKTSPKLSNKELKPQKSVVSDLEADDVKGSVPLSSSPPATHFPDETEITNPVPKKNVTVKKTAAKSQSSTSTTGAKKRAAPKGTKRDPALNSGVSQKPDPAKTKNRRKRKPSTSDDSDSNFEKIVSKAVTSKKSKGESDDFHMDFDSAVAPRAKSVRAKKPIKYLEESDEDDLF

Row | SMILES | IC50 [1] [µM] | IC50 [2] [µM] | IC50 at 72 h [3] [µM] | IC50 [4] [µM] | IC50 [5] [µM] | IC50 [6] [µM] | inhibition [7] [%] | inhibition [8] [%] | inhibition [9] [%]
1 | COc1ccc2[nH]c3c(c2c1)CCN1C(=O)c2cc(F)ccc2N(c2ccc(Cl)c(F)c2)C31 (stereo unspecified) | 6.92 | 6.44 | 2.69 | 7.68 | 6.9 | 8.9 |  |  | 
2 | COc1ccc2[nH]c3c(c2c1)CCN1C(=O)c2cc(F)ccc2N(c2ccc(C)c(F)c2)C31 (stereo unspecified) | 5.9 | 4.62 | > 6 | 6.34 | 6.62 | 6.96 |  |  | 
3 | CCOc1ccc2[nH]c3c(c2c1)CCN1C(=O)c2cc(F)cc(F)c2N(c2cccc(F)c2)C31 (stereo unspecified) | 0.92 | 0.85 | 1.8 | 0.6 | 0.89 | 1.34 | 48.3 | 50.8 | 66.7
4 | COc1ccc2[nH]c3c(c2c1)CCN1C(=O)c2cc(F)ccc2N(c2ccc(OC)c(F)c2)C31 (stereo unspecified) | 4.38 | 4.67 | > 6 | 4.32 | 6.04 | 4.55 |  |  | 
5 | COc1ccc2[nH]c3c(c2c1)CCN1C(=O)c2cc(F)ccc2N(c2cc(F)cc(Br)c2)C31 (stereo unspecified) | 5.77 | 4.36 | 5.97 |  | 7.75 | 4.21 |  |  | 
6 | COc1ccc2[nH]c3c(c2c1)CCN1C(=O)c2cc(F)ccc2N(c2cc(F)ccc2OC)C31 (stereo unspecified) | > 18 | > 18 | > 6 | > 18 | > 18 | > 18 |  |  | 
7 | COc1ccc2[nH]c3c(c2c1)CCN1C(=O)c2cc(F)ccc2N(c2cc(F)ccc2Cl)C31 (stereo unspecified) | 10.9 | 8.71 | > 6 | 11.5 | > 18 | 16.5 |  |  | 
8 | COc1ccc2[nH]c3c(c2c1)CCN1C(=O)c2cc(F)ccc2N(c2cc(F)cc(F)c2)C31 (stereo unspecified) | 2.97 | 2.91 | > 6 | 3.61 | 6.34 | 3.97 |  |  | 
9 | COc1ccc2[nH]c3c(c2c1)CCN1C(=O)c2cc(F)c(F)cc2N(c2cccc(F)c2)C31 (stereo unspecified) | 7.14 | 6.98 | > 6 | 7.69 | 10.8 | 7.21 |  |  | 
10 | CC[C@@]1(O)C(=O)OCc2c1cc1n(c2=O)Cc2cc3ccccc3nc2-1 |  |  |  |  |  |  | 70.2 |  | 
11 | COc1ccc2[nH]c3c(c2c1)CCN1C(=O)c2cc(F)ccc2N(c2cc(F)cc(Cl)c2)C31 (stereo unspecified) | 5.11 | 3.92 | 5.44 | 4.87 | 7.05 | 5.01 |  |  | 
12 | O=C1c2cc(F)cc(F)c2N(c2cccc(F)c2)C2c3[nH]c4ccc(Cl)cc4c3CCN12 (stereo unspecified) | 0.77 | 0.68 | 1.37 | 0.29 | 0.14 | 0.11 | 65.2 | 75.4 | 90.1
13 | COc1ccc2[nH]c3c(c2c1)CCN1C(=O)c2cc(F)ccc2N(c2cc(F)ccc2Br)C31 (stereo unspecified) | 13 | 13.1 | > 6 | 11.4 | > 18 | 14.7 |  |  | 
14 | COc1ccc2[nH]c3c(c2c1)CCN1C(=O)c2cc(F)ccc2N(c2ccc(Br)c(F)c2)C31 (stereo unspecified) | > 18 | 15.9 | > 6 | > 18 | > 18 | > 18 |  |  | 
15 | COc1ccc2[nH]c3c(c2c1)CCN1C(=O)c2cc(F)ccc2N(c2cc(F)ccc2C)C31 (stereo unspecified) | 9.18 | 7.19 | > 6 | 11.2 | > 18 | 8.91 |  |  | 
16 | COc1ccc2[nH]c3c(c2c1)CCN1C(=O)c2cc(F)ccc2N(c2cc(C)cc(F)c2)C31 (stereo unspecified) | 8.15 | 7.3 | > 6 | 6.99 | 12 | 7.3 |  |  | 
17 | COc1ccc2[nH]c3c(c2c1)CCN1C(=O)c2cc(F)cc(F)c2N(c2cccc(F)c2)C31 (stereo unspecified) | 0.35 | 0.27 | 1.56 | 0.23 | 39 | 0.27 | 65.2 | 20.1 | 48.4
18 | COc1ccc2[nH]c3c(c2c1)CCN1C(=O)c2cc(F)ccc2N(c2cc(F)ccc2F)C31 (stereo unspecified) | 3.98 | 2.8 | 4.67 | 7.75 | 3.78 | 5.78 |  |  | 
19 | Cc1ccc2[nH]c3c(c2c1)CCN1C(=O)c2cc(F)cc(F)c2N(c2cccc(F)c2)C31 (stereo unspecified) | 0.49 | 0.51 | 1.4 | 0.02 | 0.31 | 0.48 | 67.6 | 7.29 | 83.7
20 | COc1ccc2[nH]c3c(c2c1)CCN1C(=O)c2cc(F)ccc2N(c2ccc(F)c(F)c2)C31 (stereo unspecified) | 1.48 | 1.34 | 3.46 | 1.19 | 2.67 | 1.35 |  |  | 
21 | COc1cc(F)cc(N2c3ccc(F)cc3C(=O)N3CCc4c([nH]c5ccc(OC)cc45)C32)c1 (stereo unspecified) | 3.98 | 2.91 | 5.78 | 3.66 | 4.21 | 3.15 |  |  | 
22 | O=C1c2cc(F)cc(F)c2N(c2cccc(F)c2)C2c3[nH]c4ccccc4c3CCN12 (stereo unspecified) | 0.27 | 0.39 | 0.95 | 0.03 | 0.28 | 0.27 | 52.6 | 27.7 | 94.4
